From PubChem BioAssay AID1845201 (Molecular Pharmacology Branch, DTP, NCI, 2023)

Tested on: COR L88 complex tumor spheroid viability
Experiment: Anticancer human tumor COR L88 cell line growth inhibition;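 further: compound exposure lasted 7 days before viability readout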;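 on viability, T/C: percent of DMSO vehicle-treated spheroids = 100%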
Settings: for IC50: curve of first compound; for viability, T/C: stronger effect = lower value
Procedure, shortened: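 Complex spheroids of malignant cells with endothelial cells and mesenchymal stem cells; agents alone or combined, from near clinical Cmax (or 10 microM if unknown) down in half-log steps, 0.25% DMSO final.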

Question: With Cc1cc(C)c(CNC(=O)c2cc(-c3ccc(CN4CCOCC4)cc3)cc3c2cnn3C2CCCC2)c(=O)[nH]1 + Cn1nnc2c(C(N)=O)ncn2c1=O as the compound, how does the IC50 (second compound 1 µM) read?
Answer: Its IC50 is greater than 10 µM.

Question: And the IC50 (second compound 3.16 µM)?
Answer: Its IC50 is greater than 10 µM.

Question: What about the IC50 (second compound 10 µM) of the same compound?
Answer: The IC50 was greater than 10 µM.

Question: What about the IC50 (second compound 31.6 µM) of the same compound?
Answer: The IC50 was 8.54 µM.

Question: And the IC50 (second compound 100 µM)?
Answer: The IC50 was 3.35 µM.

Question: What about the viability, T/C (second compound 1 µM, first compound 0.0316 µM) of the same compound?
Answer: The viability, T/C was 102%.

Question: And the viability, T/C (second compound 1 µM, first compound 0.1 µM)?
Answer: Its viability, T/C is 97%.

Question: What about the viability, T/C (second compound 1 µM, first compound 0.316 µM) of the same compound?
Answer: Its viability, T/C is 93%.

Question: What about the viability, T/C (second compound 1 µM, first compound 1 µM) of the same compound?
Answer: Its viability, T/C is 86.1%.

Question: What about the viability, T/C (second compound 1 µM, first compound 3.16 µM) of the same compound?
Answer: The viability, T/C was 76.8%.

Question: And the viability, T/C (second compound 1 µM, first compound 10 µM)?
Answer: The viability, T/C was 53.3%.

Question: And the viability, T/C (second compound 3.16 µM, first compound 0.0316 µM)?
Answer: The viability, T/C was 101%.

Question: What about the viability, T/C (second compound 3.16 µM, first compound 0.1 µM) of the same compound?
Answer: The viability, T/C was 99.5%.

Question: What about the viability, T/C (second compound 3.16 µM, first compound 0.316 µM) of the same compound?
Answer: The viability, T/C was 88.5%.

Question: What about the viability, T/C (second compound 3.16 µM, first compound 1 µM) of the same compound?
Answer: The viability, T/C was 83.2%.

Question: What about the viability, T/C (second compound 3.16 µM, first compound 3.16 µM) of the same compound?
Answer: The viability, T/C was 72%.

Question: And the viability, T/C (second compound 3.16 µM, first compound 10 µM)?
Answer: Its viability, T/C is 56.5%.

Question: What about the viability, T/C (second compound 10 µM, first compound 0.0316 µM) of the same compound?
Answer: Its viability, T/C is 90.7%.

Question: What about the viability, T/C (second compound 10 µM, first compound 0.1 µM) of the same compound?
Answer: Its viability, T/C is 86.4%.

Question: And the viability, T/C (second compound 10 µM, first compound 0.316 µM)?
Answer: The viability, T/C was 88.5%.

Question: And the viability, T/C (second compound 10 µM, first compound 1 µM)?
Answer: Its viability, T/C is 75.2%.

Question: What about the viability, T/C (second compound 10 µM, first compound 3.16 µM) of the same compound?
Answer: Its viability, T/C is 69.8%.

Question: What about the viability, T/C (second compound 10 µM, first compound 10 µM) of the same compound?
Answer: The viability, T/C was 51.3%.

Question: And the viability, T/C (second compound 31.6 µM, first compound 0.0316 µM)?
Answer: The viability, T/C was 86.7%.

Question: What about the viability, T/C (second compound 31.6 µM, first compound 0.1 µM) of the same compound?
Answer: The viability, T/C was 79.1%.

Question: And the viability, T/C (second compound 31.6 µM, first compound 0.316 µM)?
Answer: Its viability, T/C is 78%.

Question: And the viability, T/C (second compound 31.6 µM, first compound 1 µM)?
Answer: The viability, T/C was 69%.

Question: And the viability, T/C (second compound 31.6 µM, first compound 3.16 µM)?
Answer: The viability, T/C was 56.1%.

Question: What about the viability, T/C (second compound 31.6 µM, first compound 10 µM) of the same compound?
Answer: Its viability, T/C is 49.7%.

Question: What about the viability, T/C (second compound 100 µM, first compound 0.0316 µM) of the same compound?
Answer: The viability, T/C was 68.7%.

Question: What about the viability, T/C (second compound 100 µM, first compound 0.1 µM) of the same compound?
Answer: The viability, T/C was 62.7%.

Question: What about the viability, T/C (second compound 100 µM, first compound 0.316 µM) of the same compound?
Answer: The viability, T/C was 63%.

Question: And the viability, T/C (second compound 100 µM, first compound 1 µM)?
Answer: The viability, T/C was 52.7%.

Question: What about the viability, T/C (second compound 100 µM, first compound 3.16 µM) of the same compound?
Answer: Its viability, T/C is 49.1%.

Question: What about the viability, T/C (second compound 100 µM, first compound 10 µM) of the same compound?
Answer: The viability, T/C was 47%.

Question: For CC1COCCN1c1cc(-c2ccnn2C)c2ccnc(-c3ccn[nH]3)c2n1 (stereo not given) + CC[C@@]1(O)C(=O)OCc2c1cc1n(c2=O)Cc2cc3c(CN(C)C)c(O)ccc3nc2-1, which IC50 (second compound 0.003 µM) is on record?
Answer: The IC50 was 0.15 µM.

Question: And the IC50 (second compound 0.00949 µM)?
Answer: The IC50 was less than 0.0316 µM.

Question: What about the IC50 (second compound 0.03 µM) of the same compound?
Answer: The IC50 was less than 0.0316 µM.

Question: And the IC50 (second compound 0.0949 µM)?
Answer: The IC50 was less than 0.0316 µM.

Question: What about the IC50 (second compound 0.3 µM) of the same compound?
Answer: Its IC50 is less than 0.0316 µM.

Question: What about the viability, T/C (second compound 0.003 µM, first compound 0.0316 µM) of the same compound?
Answer: The viability, T/C was 72.1%.

Question: And the viability, T/C (second compound 0.003 µM, first compound 0.1 µM)?
Answer: The viability, T/C was 53.5%.

Question: What about the viability, T/C (second compound 0.003 µM, first compound 0.316 µM) of the same compound?
Answer: The viability, T/C was 41.7%.

Question: And the viability, T/C (second compound 0.003 µM, first compound 1 µM)?
Answer: Its viability, T/C is 25.8%.

Question: What about the viability, T/C (second compound 0.003 µM, first compound 3.16 µM) of the same compound?
Answer: The viability, T/C was 16.1%.

Question: What about the viability, T/C (second compound 0.003 µM, first compound 10 µM) of the same compound?
Answer: Its viability, T/C is 4.41%.

Question: What about the viability, T/C (second compound 0.00949 µM, first compound 0.0316 µM) of the same compound?
Answer: Its viability, T/C is 37.8%.

Question: What about the viability, T/C (second compound 0.00949 µM, first compound 0.1 µM) of the same compound?
Answer: Its viability, T/C is 35.5%.

Question: And the viability, T/C (second compound 0.00949 µM, first compound 0.316 µM)?
Answer: The viability, T/C was 27.7%.

Question: And the viability, T/C (second compound 0.00949 µM, first compound 1 µM)?
Answer: The viability, T/C was 17.1%.

Question: And the viability, T/C (second compound 0.00949 µM, first compound 3.16 µM)?
Answer: The viability, T/C was 7.44%.

Question: What about the viability, T/C (second compound 0.00949 µM, first compound 10 µM) of the same compound?
Answer: The viability, T/C was 3.34%.

Question: And the viability, T/C (second compound 0.03 µM, first compound 0.0316 µM)?
Answer: The viability, T/C was 26.1%.

Question: What about the viability, T/C (second compound 0.03 µM, first compound 0.1 µM) of the same compound?
Answer: The viability, T/C was 23%.

Question: What about the viability, T/C (second compound 0.03 µM, first compound 0.316 µM) of the same compound?
Answer: Its viability, T/C is 16.6%.

Question: And the viability, T/C (second compound 0.03 µM, first compound 1 µM)?
Answer: The viability, T/C was 10.1%.

Question: What about the viability, T/C (second compound 0.03 µM, first compound 3.16 µM) of the same compound?
Answer: Its viability, T/C is 5.31%.

Question: What about the viability, T/C (second compound 0.03 µM, first compound 10 µM) of the same compound?
Answer: Its viability, T/C is 2.97%.

Question: And the viability, T/C (second compound 0.0949 µM, first compound 0.0316 µM)?
Answer: The viability, T/C was 15.2%.

Question: And the viability, T/C (second compound 0.0949 µM, first compound 0.1 µM)?
Answer: The viability, T/C was 12.2%.

Question: And the viability, T/C (second compound 0.0949 µM, first compound 0.316 µM)?
Answer: Its viability, T/C is 8.67%.

Question: What about the viability, T/C (second compound 0.0949 µM, first compound 1 µM) of the same compound?
Answer: The viability, T/C was 5.76%.

Question: And the viability, T/C (second compound 0.0949 µM, first compound 3.16 µM)?
Answer: Its viability, T/C is 2.87%.

Question: What about the viability, T/C (second compound 0.0949 µM, first compound 10 µM) of the same compound?
Answer: The viability, T/C was 1.98%.

Question: And the viability, T/C (second compound 0.3 µM, first compound 0.0316 µM)?
Answer: Its viability, T/C is 6.79%.

Question: And the viability, T/C (second compound 0.3 µM, first compound 0.1 µM)?
Answer: Its viability, T/C is 6.02%.

Question: What about the viability, T/C (second compound 0.3 µM, first compound 0.316 µM) of the same compound?
Answer: The viability, T/C was 5.21%.

Question: What about the viability, T/C (second compound 0.3 µM, first compound 1 µM) of the same compound?
Answer: The viability, T/C was 3.2%.

Question: And the viability, T/C (second compound 0.3 µM, first compound 3.16 µM)?
Answer: Its viability, T/C is 1.82%.

Question: And the viability, T/C (second compound 0.3 µM, first compound 10 µM)?
Answer: Its viability, T/C is 1.1%.
